Our source for the MIC values is US4273923A, “Process for preparing aminoglycoside derivatives” (Shionogi & Co., Ltd., priority 1979, dated 1981).

The test deals with Staphylococcus epidermidis TB-172. Kind of test: MIC by agar dilution method. The test is classed as cell-based. As to conditions: TB172, tobramycin resistant strain, innoculum size 10^4 CFU/ml, 37° C., 18 to 20 hours, read-out: Minimum Inhibitory Concentration (MIC).

≈ marks a conversion by molar mass, not a printed value.

For `NCC1=CC[C@@H](N)[C@@H](O[C@H]2[C@H](O)[C@@H](O[C@H]3O[C@H](CO)[C@@H](O)[C@H](N)[C@H]3O)[C@H](N)C[C@@H]2N)O1` [[A], O-[3-amino-3-deoxy-α-D-glucopyranosyl-(1→6)]-O-[2,6-diamino-2,3,4,6-tetradeoxy-α-D-glycero-hex-4-enopyranosyl-(1→4)]-2-deoxy-D-streptamine], the MIC was determined as 0.1 µg/mL (≈ 0.222 µM).

Turning to `NC[C@H]1O[C@H](O[C@H]2[C@H](O)[C@@H](O[C@H]3O[C@H](CO)[C@@H](O)[C@H](N)[C@H]3O)[C@H](N)C[C@@H]2N)[C@H](N)C[C@@H]1O` [TOB, tobramycin], the MIC came out at 25 µg/mL (≈ 53.5 µM).
